Target: T1, OAT3 (Homo sapiens, UniProt Q8TCC7)
T1 construct: host or cells: HEK293 (transient overexpression)
T1 sequence (Q8TCC7 1-542): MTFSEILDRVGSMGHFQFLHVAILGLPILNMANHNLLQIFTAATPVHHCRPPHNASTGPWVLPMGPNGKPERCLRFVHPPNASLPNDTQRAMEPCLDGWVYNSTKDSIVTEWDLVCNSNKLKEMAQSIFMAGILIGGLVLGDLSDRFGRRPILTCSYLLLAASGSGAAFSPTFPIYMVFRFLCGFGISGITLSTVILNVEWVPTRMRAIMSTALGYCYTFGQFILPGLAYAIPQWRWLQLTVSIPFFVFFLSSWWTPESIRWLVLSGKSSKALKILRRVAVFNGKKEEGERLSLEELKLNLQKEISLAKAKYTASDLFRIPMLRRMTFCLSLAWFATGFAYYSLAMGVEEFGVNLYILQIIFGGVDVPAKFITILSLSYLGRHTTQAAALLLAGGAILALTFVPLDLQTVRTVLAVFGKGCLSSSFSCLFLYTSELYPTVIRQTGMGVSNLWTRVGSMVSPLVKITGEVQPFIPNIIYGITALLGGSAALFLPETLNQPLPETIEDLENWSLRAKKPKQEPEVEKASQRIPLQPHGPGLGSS
Test: Uptake of [3-H]estrone-3-sulfate in HEK293-OAT3 cells
Type: in vitro ADME
Procedure: The concentrations and probe substrates were selected as follows: 0.1 μM [3-H]MPP^+ (for OCT1 and OCT2), 0.1 μM [3-H]PAH (for OAT1), 0.1 μM [3-H]ES (for OAT3 and OATP1B1), and 0.1 μM [3-H]EG (for OATP1B3).
1.1 (Systat Software, Inc.).

CCCCCn1nc(C(=O)NC23CC4CC(CC(C4)C2)C3)c2ccccc21 [APINACA, N-(1-adamantyl)-1-pentyl-1H-indazole-3-carboxamide]
IC50: > 250 µM

— paper PMC6720883, “In Vitro Inhibitory Effects of APINACA on Human Major Cytochrome P450, UDP-Glucuronosyltransferase Enzymes, and Drug Transporters” (Molecules, 2019)
